Data from ChEMBL document CHEMBL1681677 (Bioorg Med Chem Lett, 2011).

Legend:
Carbonic anhydrase 1 = Carbonic anhydrase 1 (Homo sapiens, UniProt P00915)
Carbonic anhydrase 2 = Carbonic anhydrase 2 (Homo sapiens, UniProt P00918)
[1] = biological target: Carbonic anhydrase 5A, mitochondrial (Homo sapiens, UniProt P35218)
[2] = biological target: Carbonic anhydrase 5B, mitochondrial (Homo sapiens, UniProt Q9Y2D0)
Sequence of Carbonic anhydrase 5B, mitochondrial (Q9Y2D0 whole entry): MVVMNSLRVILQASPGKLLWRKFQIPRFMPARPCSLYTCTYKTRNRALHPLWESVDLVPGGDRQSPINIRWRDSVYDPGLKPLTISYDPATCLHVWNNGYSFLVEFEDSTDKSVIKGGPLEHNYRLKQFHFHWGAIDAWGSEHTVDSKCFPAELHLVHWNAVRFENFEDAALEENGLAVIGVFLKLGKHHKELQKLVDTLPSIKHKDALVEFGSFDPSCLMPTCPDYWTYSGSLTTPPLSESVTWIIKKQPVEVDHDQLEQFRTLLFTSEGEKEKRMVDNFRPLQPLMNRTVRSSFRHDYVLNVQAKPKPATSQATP

Sequence of Carbonic anhydrase 1 (P00915 whole entry): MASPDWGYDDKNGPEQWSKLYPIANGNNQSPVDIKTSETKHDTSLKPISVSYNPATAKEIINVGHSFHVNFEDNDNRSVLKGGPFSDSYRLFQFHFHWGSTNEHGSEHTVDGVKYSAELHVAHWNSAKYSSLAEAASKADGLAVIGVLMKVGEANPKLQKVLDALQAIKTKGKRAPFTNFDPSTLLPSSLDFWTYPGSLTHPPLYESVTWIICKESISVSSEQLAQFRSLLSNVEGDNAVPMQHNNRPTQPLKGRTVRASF
Sequence of Carbonic anhydrase 5A, mitochondrial (P35218 whole entry): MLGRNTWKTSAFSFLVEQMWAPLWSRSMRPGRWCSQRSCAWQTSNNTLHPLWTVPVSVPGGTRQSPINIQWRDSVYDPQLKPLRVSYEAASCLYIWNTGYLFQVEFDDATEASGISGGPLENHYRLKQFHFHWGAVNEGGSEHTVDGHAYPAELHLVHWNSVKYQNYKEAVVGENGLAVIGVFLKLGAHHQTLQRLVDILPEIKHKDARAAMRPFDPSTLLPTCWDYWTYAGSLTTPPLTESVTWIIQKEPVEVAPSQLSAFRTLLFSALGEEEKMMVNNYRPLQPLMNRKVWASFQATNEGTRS

Structure (SMILES) | Ki (Carbonic anhydrase 1) | Ki (Carbonic anhydrase 2) | Ki [1] | Ki [2]
CC1(C)C2CC[C@]1(CS(=O)(=O)NCc1ccc(S(N)(=O)=O)cc1)C(=O)C2 | 920 nM | 1560 nM | 16.6 nM | 40.3 nM
CC1(C)C2CC[C@@]1(CS(=O)(=O)NCc1ccc(S(N)(=O)=O)cc1)C(=O)C2 | 1040 nM | 2460 nM | 27.5 nM | 67.3 nM
